Source: patent US10130633B2, “Compounds” (BAYER PHARMA AKTIENGESELLSCHAFT, priority 2013, dated 2018)
pIC50: −log10 of the molar value. Structures can show the parent of a compound that is named as a salt.

Tests used:
[1] = tested on: HCT116 FOP control reporter cell line; test: HCT116 FOPFlash control reporter assay (FOP control vector, non-functional TCF elements); assay type: cell-based; settings: HCT116 FOP control reporter cells, 36 hours incubation, luciferase expression
Text: In a parallel approach, HCT116 cells were cotransfected with the FOP control vector and pcDNA3. The FOP vector is identical to the TOP construct, but it contains instead of functional TCF elements a randomized, non-functional sequence. For this transfection a stable transfected cell line was generated as well.

[2] = tested on: constitutive active colorectal cancer cell (CRC) Wnt pathway; test: HCT116 TOPFlash cellular reporter assay (Super TopFlash luciferase), constitutive active Wnt pathway; assay type: cell-based; settings: HCT116 TOP reporter cells, 36 hours incubation, luciferase expression
Procedure: In order to discover and characterize small molecules which inhibit the constitutive active colorectal cancer cell (CRC) Wnt pathway, a cellular reporter assay was employed. […] Stable transfectants were generated by cotransfection with pcDNA3 and selection of stable transfected cells with 1 mg/ml G418.

pIC50 [1] | pIC50 [2] | pIC50 ([1]; Homo sapiens, HCT-116, 36 h) | pIC50 ([2]; Homo sapiens, HCT-116, 36 h) | Structure (SMILES)
4.89 | 6.43 |  |  | CC(C(=O)Nc1cc(NC(=O)c2ccc(-c3cccc(F)c3)nc2)ccc1OC(F)(F)F)N1CC2CCC(C1)O2 (centres unmarked) [Example 220, 6-(3-fluorophenyl)-N-[3-{[2-(8-oxa-3-azabicyclo[3.2.1]oct-3-yl)propanoyl]amino}-4-(trifluoromethoxy)phenyl] nicotinamide]
5.02 | 7.06 |  |  | CC(C(=O)Nc1cc(NC(=O)c2ccc(-c3cccc(F)c3)nc2)ccc1OC(F)(F)F)N1CCOCC1 (centres unmarked) [Example 190, 6-(3-fluorophenyl)-N-[3-{[2-(morpholin-4-yl)propanoyl]amino}-4-(trifluoromethoxy)phenyl] nicotinamide]
 |  | ≤ 4.30 | 6.41 | CN1CCN(CC(=O)Nc2cc(C(=O)Nc3nnc(-c4ccccc4C(F)(F)F)s3)ccc2OC(F)(F)F)CC1 [Example 270, 3-{[(4-methylpiperazin-1-yl)acetyl]amino}-4-(trifluoromethoxy)-N-{5-[2-(trifluoromethyl)phenyl]-1,3,4-thiadiazol-2-yl}benzamide]
5.28 | 8.11 |  |  | CC(C(=O)Nc1cc(C(=O)Nc2ccc(-c3cc(F)cc(F)c3)nc2)ccc1OC(F)(F)F)N1CCOCC1 (centres unmarked) [Example 245, N-[6-(3,5-difluorophenyl)pyridin-3-yl]-3-{[2-(morpholin-4-yl)propanoyl]amino}-4-(trifluoromethoxy)benzamide]
 |  | ≤ 4.30 | 6.28 | O=C(CN1CCOCC1)Nc1cc(C(=O)Nc2ncc(-c3ccccc3)s2)ccc1C(F)(F)F [Example 12, 3-[(morpholin-4-ylacetyl)amino]-N-(5-phenyl-1,3-thiazol-2-yl)-4-(trifluoromethyl)benzamide]
 |  | 5.19 | 6.61 | O=C(CN1CC2CCC(C1)O2)Nc1cc(C(=O)Nc2ccc(-c3ccccc3F)nc2)ccc1C(F)(F)F [Example 226, N-[6-(2-fluorophenyl)pyridin-3-yl]-3-[(8-oxa-3-azabicyclo[3.2.1]oct-3-ylacetyl)amino]-4-(trifluoromethyl)benzamide]
 |  | ≤ 4.30 | 7.18 | O=C(CN1CCCOCC1)Nc1cc(C(=O)Nc2nnc(-c3ccccc3)s2)ccc1OC(F)(F)F [Example 169, 3-[(1,4-oxazepan-4-ylacetyl)amino]-N-(5-phenyl-1,3,4-thiadiazol-2-yl)-4-(trifluoromethoxy)benzamide]
 |  | ≤ 4.30 | 6.84 | CC(C(=O)Nc1cc(C(=O)Nc2ccc(-c3ccccc3F)nc2)ccc1OC(F)(F)F)N1CCN(C2CC2)CC1 (centres unmarked) [Example 196, 3-{[2-(4-cyclopropylpiperazin-1-yl)propanoyl]amino}-N-[6-(2-fluorophenyl)pyridin-3-yl]-4-(trifluoromethoxy)benzamide]
 |  | ≤ 4.30 | 6.08 | O=C(CN1CCOCC1)Nc1cc(NC(=O)c2noc(-c3ccccc3)n2)ccc1OC(F)(F)F [Example 121, N-{3-[(morpholin-4-ylacetyl)amino]-4-(trifluoromethoxy)phenyl}-5-phenyl-1,2,4-oxadiazole-3-carboxamide]
 |  | ≤ 4.30 | 6.05 | CC(C(=O)Nc1cc(C(=O)Nc2nnc(-c3ccccc3)s2)ccc1C(F)(F)F)N1CCN(C)CC1 (centres unmarked) [Example 129, 3-{[2-(4-methylpiperazin-1-yl)propanoyl]amino}-N-(5-phenyl-1,3,4-thiadiazol-2-yl)-4-(trifluoromethyl)benzamide]
4.82 | 6.48 |  |  | CC(C(=O)Nc1cc(NC(=O)c2ccc(-c3cc(F)cc(F)c3)nc2)ccc1OC(F)(F)F)N1CC2CCC(C1)O2 (centres unmarked) [Example 218, 6-(3,5-difluorophenyl)-N-[3-{[2-(8-oxa-3-azabicyclo[3.2.1]oct-3-yl)propanoyl]amino}-4-(trifluoromethoxy)phenyl] nicotinamide]
 |  | 5.44 | 6.59 | O=C(CN1CC2CCC(C1)O2)Nc1cc(NC(=O)c2ccc(-c3cc(F)cc(F)c3)nc2)ccc1OC(F)(F)F [Example 216, 6-(3,5-difluorophenyl)-N-{3-[(8-oxa-3-azabicyclo[3.2.1]oct-3-ylacetyl)amino]-4-(trifluoromethoxy)phenyl} nicotinamide]
 |  | ≤ 4.30 | 6.29 | O=C(Nc1nnc(-c2ccccc2)s1)c1ccc(F)c(NC(=O)C2(N3CCOCC3)CC2)c1 [Example 78, 4-fluoro-3-({[1-(morpholin-4-yl)cyclopropyl]carbonyl}amino)-N-(5-phenyl-1,3,4-thiadiazol-2-yl)benzamide]
 |  | ≤ 4.30 | 5.93 | O=C(CN1CC2CCC(C1)O2)Nc1cc(C(=O)Nc2nnc(-c3ccccc3)s2)ccc1OC(F)(F)F [Example 240, 3-[(8-oxa-3-azabicyclo[3.2.1]oct-3-ylacetyl)amino]-N-(5-phenyl-1,3,4-thiadiazol-2-yl)-4-(trifluoromethoxy)benzamide]
 |  | ≤ 4.30 | 5.77 | O=C(CN1CCOCC1)Nc1cc(C(=O)Nc2nc(-c3ccccc3)no2)ccc1OC(F)(F)F [Example 125, 3-[(morpholin-4-ylacetyl)amino]-N-(3-phenyl-1,2,4-oxadiazol-5-yl)-4-(trifluoromethoxy)benzamide]
 |  | 4.55 | 6.02 | CC1CN(CC(=O)Nc2cc(C(=O)Nc3nnc(-c4ccccc4)s3)ccc2OC(F)(F)F)CCN1C (centres unmarked) [Example 160, 3-{[(3,4-dimethylpiperazin-1-yl)acetyl]amino}-N-(5-phenyl-1,3,4-thiadiazol-2-yl)-4-(trifluoromethoxy)benzamide]
 |  | ≤ 4.30 | 6.82 | CSc1ccc(C(=O)Nc2ccc(-c3ccccc3F)nc2)cc1NC(=O)CN1CCOCC1 [Example 138, N-[6-(2-fluorophenyl)pyridin-3-yl]-4-(methylsulfanyl)-3-[(morpholin-4-ylacetyl)amino]benzamide]
5.19 | 6.72 |  |  | CC(C(=O)Nc1cc(NC(=O)c2ccc(-c3cccc(F)c3)nc2)ccc1OC(F)(F)F)N1CC2CCC(C1)O2 (centres unmarked) [Example 200, 6-(3-fluorophenyl)-N-[3-{[2-(8-oxa-3-azabicyclo[3.2.1]oct-3-yl)propanoyl]amino}-4-(trifluoromethoxy)phenyl] nicotinamide]
 |  | ≤ 4.30 | 6.15 | CC(C(=O)Nc1cc(C(=O)Nc2nnc(-c3ccccc3)s2)ccc1C(F)(F)F)N1CCOCC1 (centres unmarked) [Example 128, 3-{[2-(morpholin-4-yl)propanoyl]amino}-N-(5-phenyl-1,3,4-thiadiazol-2-yl)-4-(trifluoromethyl)benzamide]
 |  | 4.37 | 7.07 | O=C(CN1CCOCC1)Nc1cc(C(=O)Nc2ccc(-c3ccccc3F)nc2)ccc1C(F)(F)F [Example 74, N-[6-(2-fluorophenyl)pyridin-3-yl]-3-[(morpholin-4-ylacetyl)amino]-4-(trifluoromethyl)benzamide]
 |  | ≤ 4.30 | 5.39 | O=C(CN1CCN(C2CC2)CC1)Nc1cc(C(=O)Nc2nnc(-c3ccccc3)s2)ccc1Br [Example 253, 4-bromo-3-{[(4-cyclopropylpiperazin-1-yl)acetyl]amino}-N-(5-phenyl-1,3,4-thiadiazol-2-yl)benzamide]
 |  | ≤ 4.30 | 6.26 | CN1CCN(CC(=O)Nc2cc(C(=O)Nc3nnc(-c4cccc(C(F)(F)F)c4)s3)ccc2OC(F)(F)F)CC1 [Example 272, 3-{[(4-methylpiperazin-1-yl)acetyl]amino}-4-(trifluoromethoxy)-N-{5-[3-(trifluoromethyl)phenyl]-1,3,4-thiadiazol-2-yl}benzamide]
4.56 | 7.32 |  |  | CC(C(=O)Nc1cc(C(=O)Nc2ccc(-c3cc(F)cc(F)c3)nc2)ccc1OC(F)(F)F)N1CCOCC1 (centres unmarked) [Example 246, N-[6-(3,5-difluorophenyl)pyridin-3-yl]-3-{[2-(morpholin-4-yl)propanoyl]amino}-4-(trifluoromethoxy)benzamide]
 |  | ≤ 4.30 | 6.56 | CN1CCN(C2(C(=O)Nc3cc(C(=O)Nc4ccc(-c5ccccc5F)nc4)ccc3OC(F)(F)F)CC2)CC1 [Example 236, N-[6-(2-fluorophenyl)pyridin-3-yl]-3-({[1-(4-methylpiperazin-1-yl)cyclopropyl]carbonyl}amino)-4-(trifluoromethoxy)benzamide]
 |  | 4.66 | 5.92 | COc1ccc(NC(=O)c2ccc(-c3ccc(F)cc3)s2)cc1NC(=O)CN1CCOCC1 [Example 36, 5-(4-fluorophenyl)-N-{4-methoxy-3-[(morpholin-4-ylacetyl)amino]phenyl}thiophene-2-carboxamide]

Structure (SMILES) | pIC50 [1] | pIC50 [2] | pIC50 ([1]; Homo sapiens, HCT-116, 36 h) | pIC50 ([2]; Homo sapiens, HCT-116, 36 h)
O=C(Nc1nnc(-c2ccccc2)s1)c1ccc(Cl)c(NC(=O)C2(N3CCN(C4CC4)CC3)CC2)c1 [Example 262, 4-chloro-3-({[1-(4-cyclopropylpiperazin-1-yl)cyclopropyl]carbonyl}amino)-N-(5-phenyl-1,3,4-thiadiazol-2-yl)benzamide trifluoroacetate (1:1)] |  |  | ≤ 4.30 | 6.71
COCc1ccc(C(=O)Nc2nnc(-c3ccccc3C)s2)cc1NC(=O)CN1CCN(C)CC1 [Example 177, 4-(methoxymethyl)-N-[5-(2-methylphenyl)-1,3,4-thiadiazol-2-yl]-3-{[(4-methylpiperazin-1-yl)acetyl]amino}benzamide hydrochloride (1:1)] |  |  | 4.46 | 6.34
CC(C(=O)Nc1cc(C(=O)Nc2nnc(-c3ccccc3)s2)ccc1CS(C)(=O)=O)N1CCN(C)CC1 (centres unmarked) [Example 88, 3-{[2-(4-methylpiperazin-1-yl)propanoyl]amino}-4-[(methylsulfonyl)methyl]-N-(5-phenyl-1,3,4-thiadiazol-2-yl)benzamide] | ≤ 4.30 | 6.38 |  | 
